Source: patent US8895752B2, “Alkylsulfonyl-substituted thiazolide compounds” (priority 2007, dated 2014)
Values joined by “and” are separate entries in the source; they are usually repeats but may differ in a detail not shown here. Equal values may be shown once. Read-outs that look alike come from different tables or passages of the source.

What was measured:
HCV replicon cells = test: Primary HCV replicon cell assay, cytotoxicity; conditions: primary assay
Experimental: (§1) Antiviral activity of test compounds was assessed in a 3-day assay using the stably-expressing HCV replicon cell line, AVA5 (sub-genomic CON1, genotype 1b) (Blight et al., 2000) maintained as sub-confluent cultures on 96-well plates as previously described (Okuse et al., 2005). Antiviral activity was determined by blot hybridization analysis of intracellular HCV RNA (normalized to the level of cellular B-actin RNA in each culture sample) and cytotoxicity was assessed by neutral red dye uptake after 3 days of treatment. Additional studies were performed using Huh7 cells containing another HCV replicon, H/FL-Neo, a genotype 1a full length construct (Blight et al., 2003). For studies involving human serum, standard culture medium (which contains 10% fetal bovine serum) and assay conditions were maintained.
(§2) EC50, EC90 and CC50 values (±standard deviations [S.D.]) were calculated by linear regression analysis using data combined from all treated cultures (Korba and Gerin, 1992; Okuse et al., 2005). […] Selectivity index (S.I.) was calculated as CC50/EC90 for HBV assays and CC50/EC50 for HCV assays. EC90 values were used for calculation of the S.I. in HBV assays since at least a […] depression of HBV DNA levels is typically required to achieve statistical significance in this assay system (Korba and Gerin, 1992). For combination treatments, EC50, EC90, CC50 and S.I. are presented for the first compound listed. The molar ratio of the compounds in each combination is also indicated.

[1] = test system: HCV replicon cells, genotype 1B; test: Secondary HCV replicon cell assay, genotype 1B, cytotoxicity; assay type: cell-based
Description: (§3) Table 10 presents data from the secondary HCV replicon cell assays using genotypes 1B and 1A.

[2] = test system: HCV replicon cells, genotype 1A; test: Secondary HCV replicon cell assay, genotype 1A, cytotoxicity; assay type: cell-based
Description: as §3

HCV replicon genotype 1B = test: Secondary HCV replicon cell assay, genotype 1B; assay type: cell-based, Hepatitis C Virus
Description: as §3

HCV replicon genotype 1A = test: Secondary HCV replicon cell assay, genotype 1A; assay type: cell-based, Hepatitis C Virus
Description: as §3

HCV replicon = test: Primary HCV replicon cell assay; assay type: cell-based, Hepatitis C Virus
Experimental: as §1, §2

[3] = test system: Huh7 cells containing H/FL-Neo; test: Cytotoxicity by neutral red dye uptake in Huh7 cells containing H/FL-Neo; assay type: cell-based; conditions: Genotype 1a replicon
[4] = test system: HCV replicon H/FL-Neo, genotype 1a full length; test: HCV replicon assay in Huh7 cells containing H/FL-Neo; assay type: cell-based, Hepatitis C Virus
Experimental: as §1, §2

HBV = HBV antiviral assay in confluent 2.2.15 cell cultures (HBV DNA, quantitative blot hybridization); assay type: cell-based, Hepatitis B Virus
Experimental: EC50, EC90 and CC50 values (±standard deviations [S.D.]) were calculated by linear regression analysis using data combined from all treated cultures (Korba and Gerin, 1992; Okuse et al., 2005). […] Selectivity index (S.I.) was calculated as CC50/EC90 for HBV assays and CC50/EC50 for HCV assays. EC90 values were used for calculation of the S.I. in HBV assays since at least a 3-fold depression of HBV DNA levels is typically required to achieve statistical significance in this assay system (Korba and Gerin, 1992).

2.2.15 cells = test: Cytotoxicity by neutral red dye uptake in 2.2.15 cells; conditions: confluent 2.2.15 cultures, nine daily doses, neutral red uptake
Experimental: (§4) HBV antiviral assays were conducted as previous described (Korba and Gerin, 1992).
as §2

AVA5 cells = test: Cytotoxicity by neutral red dye uptake in AVA5 cells; assay type: cell-based; conditions: Genotype 1b replicon, 3 days
[5] = test system: HCV replicon, sub-genomic CON1, genotype 1b; test: 3-day HCV replicon assay in AVA5 cells (intracellular HCV RNA, blot hybridization); assay type: cell-based, Hepatitis C Virus
Experimental: as §1, §2

[6] = Cytotoxicity by neutral red dye uptake in Huh7 cells containing H/FL-Neo; assay type: cell-based; conditions: human; Genotype 1a replicon
HCV replication = test: HCV replicon assay in the presence of human serum; assay type: cell-based; conditions: Hepatitis C virus
Experimental: as §1, §2
(§5) To evaluate the effect of human serum on the anti-HCV potency and cytotoxicity of TIZ, human serum was added to the culture medium at various concentrations (Table 6). […] In the below tables, RM4863 is the same as compound 6 of Table 7.

cytochrome P450 enzymes = conditions: cited from earlier work
[7] = Cytotoxicity by neutral red dye uptake in 2.2.15 cells; conditions: human
Experimental: as §4, §2

[8] = Cytotoxicity in HCV replicon cells in the presence of human serum
Experimental: as §1, §2, §5

[9] = Cytotoxicity by neutral red dye uptake in AVA5 cells; assay type: cell-based; conditions: human, AVA5 cells (HCV replicon, sub-genomic CON1), Genotype 1b replicon
[10] = cited from earlier work
[11] = Genotype 1b replicon, 3 days, first compound listed for combinations
[12] = Hepatitis C virus, Huh-7, Genotype 1a replicon

Work on CS(=O)(=O)c1cnc(NC(=O)c2ccccc2O)s1 [Compound 75] yielded a CC50 (HCV replicon cells) of 53 µM, a CC50 [1] of 54 µM and a CC50 [2] of 56 µM. For the same molecule, the EC90 (HCV replicon genotype 1B) was 7.9 µM, the EC50 (HCV replicon genotype 1A) was 2.8 µM and the EC90 (HCV replicon genotype 1A) was 8.5 µM. The EC50 (HCV replicon) was 2.1 µM and the EC90 (HCV replicon) was 8.1 µM.
For O=C(Nc1ncc(Br)s1)c1ccccc1O [RM4832], the CC50 [3] was 88 ± 2.1 µM, the “antiviral activity against full length genotype 1a replicon compared with AVA5 cells (genotype 1b)” value [4] was “equivalent” and the EC50 ([4]; Genotype 1a replicon) was 2.8 ± 0.3 µM. The EC90 ([4]; Genotype 1a replicon) was 9.4 ± 1.1 µM, the EC50 (HBV; 2.2.15 cells, nine daily doses, read-out: Extracellular virion DNA EC50) was 1.2 ± 0.1 µM and the EC90 (HBV; 2.2.15 cells, nine daily doses, read-out: Extracellular virion DNA EC90) was 4 ± 0.3 µM. For the same molecule, the EC50 (HBV; 2.2.15 cells, nine daily doses, read-out: Intracellular HBV RI EC50) was 2.9 ± 0.3 µM, the EC90 (HBV; 2.2.15 cells, nine daily doses, read-out: Intracellular HBV RI EC90) was 8.7 ± 1 µM and the CC50 (2.2.15 cells) was greater than 100 µM. For the same molecule, the CC50 (AVA5 cells) was 98 ± 3.2 µM, the EC50 [5, 11] was 4.9 ± 0.5 µM and the EC90 [5, 11] was 20 ± 1.9 µM. For the same molecule, the “activity against HCV” value ([5]; among the other thiazolides) was “exhibited activity”.
O=C(Nc1ncc([N+](=O)[O-])s1)c1ccccc1O [TIZ, tizoxanide] showed a CC50 at 3 days [6] of 14 ± 0.2 µM, an EC50 (HCV replication; human serum 0 %) of 0.25 ± 0.01 µM and an EC90 (HCV replication; human serum 0 %) of 0.98 ± 0.04 µM. The EC50 (HCV replication; human serum 2.5 %) was 0.48 ± 0.02 µM, the EC90 (HCV replication; human serum 2.5 %) was 1.1 ± 0.1 µM and the EC50 (HCV replication; human serum 5 %) was 0.64 ± 0.05 µM. For the same molecule, the EC90 (HCV replication; human serum 5 %) was 2.3 ± 0.1 µM, the EC50 (HCV replication; human serum 10 %) was 1.1 ± 0.1 µM and the EC90 (HCV replication; human serum 10 %) was 3 ± 0.2 µM. For the same molecule, the EC50 (HCV replication; human serum 15 %) was 2.7 ± 0.3 µM, the EC90 (HCV replication; human serum 15 %) was 15 ± 2 µM and the EC50 (HCV replication; human serum 20 %) was 9.4 ± 0.8 µM. It also gave an EC90 (HCV replication; human serum 20 %) of 27 ± 2.2 µM, an EC50 (HCV replication; human serum 30 %) of 9.3 ± 0.9 µM and an EC90 (HCV replication; human serum 30 %) of 32 ± 3 µM. The “antiviral activity against full length genotype 1a replicon compared with AVA5 cells (genotype 1b)” value [4] was “equivalent”, the “Selectivity Index” value ([4]; Genotype 1a replicon, CC50/EC50) was 56 and the EC50 [4, 12] was 0.25 ± 0.03 µM. The EC90 [4, 12] was 1 ± 0.1 µM, the “inhibition of cytochrome P450 enzymes” value (cytochrome P450 enzymes) was “does not inhibit” and the “Selectivity Index Virion” value (HBV; CC50/EC90, extracellular virion DNA) was greater than 172. For the same molecule, the “Selectivity Index RI” value (HBV; CC50/EC90, intracellular HBV RI) was greater than 83, the EC50 (HBV; Hepatitis B virus, read-out: Intracellular HBV RI EC50) was 0.46 ± 0.05 µM and the EC50 (HBV; Hepatitis B virus, 2.2.15 cells, nine daily doses, read-out: Extracellular virion DNA EC50) was 0.15 ± 0.02 µM. It also gave an EC90 (HBV; Hepatitis B virus, 2.2.15 cells, nine daily doses, read-out: Extracellular virion DNA EC90) of 0.58 ± 0.06 µM, an EC90 (HBV; Hepatitis B virus, 2.2.15 cells, nine daily doses, read-out: Intracellular HBV RI EC90) of 1.2 ± 0.2 µM and a CC50 at 9 days [7] greater than 100 µM. For the same molecule, the CC50 at 3 days ([8]; CC50, human serum 0 %) was 28 ± 0.9 µM, the CC50 at 3 days ([8]; CC50, human serum 2.5 %) was 65 ± 1.4 µM and the CC50 at 3 days ([8]; CC50, human serum 5 %) was 97 ± 3.9 µM. The CC50 at 3 days ([8]; CC50, human serum 10 %) was greater than 100 µM, the CC50 at 3 days ([8]; CC50, human serum 15 %) was greater than 100 µM and the CC50 at 3 days ([8]; CC50, human serum 20 %) was greater than 100 µM. For the same molecule, the CC50 at 3 days ([8]; CC50, human serum 30 %) was greater than 100 µM, the CC50 at 3 days [9] was 15 ± 1.2 µM and the “elimination half-life from plasma” value ([10]; in vivo) was “approximately 1.5 hours”. For the same molecule, the Maximum serum concentrations ([10]; one 500 mg NTZ tablet (Alinia) orally with food) was “approximately 10 μg/mL and ~37 μM”, the “part of an oral dose that passes through the intestinal tract and is excreted in feces as TIZ” value ([10]; oral dose of NTZ) was “Approximately two-thirds” and the “Selectivity Index” value ([5]; Genotype 1b replicon, CC50/EC50) was 100.
